Among the data in patent US11339130B1 (Blade Therapeutics, Inc., priority 2016, dated 2022) are IC50 values, retold here.

For one assay, the target named is T1, Human Calpain 9/NS1 (Homo sapiens, UniProt O14815).
T1 sequence (O14815 1-690): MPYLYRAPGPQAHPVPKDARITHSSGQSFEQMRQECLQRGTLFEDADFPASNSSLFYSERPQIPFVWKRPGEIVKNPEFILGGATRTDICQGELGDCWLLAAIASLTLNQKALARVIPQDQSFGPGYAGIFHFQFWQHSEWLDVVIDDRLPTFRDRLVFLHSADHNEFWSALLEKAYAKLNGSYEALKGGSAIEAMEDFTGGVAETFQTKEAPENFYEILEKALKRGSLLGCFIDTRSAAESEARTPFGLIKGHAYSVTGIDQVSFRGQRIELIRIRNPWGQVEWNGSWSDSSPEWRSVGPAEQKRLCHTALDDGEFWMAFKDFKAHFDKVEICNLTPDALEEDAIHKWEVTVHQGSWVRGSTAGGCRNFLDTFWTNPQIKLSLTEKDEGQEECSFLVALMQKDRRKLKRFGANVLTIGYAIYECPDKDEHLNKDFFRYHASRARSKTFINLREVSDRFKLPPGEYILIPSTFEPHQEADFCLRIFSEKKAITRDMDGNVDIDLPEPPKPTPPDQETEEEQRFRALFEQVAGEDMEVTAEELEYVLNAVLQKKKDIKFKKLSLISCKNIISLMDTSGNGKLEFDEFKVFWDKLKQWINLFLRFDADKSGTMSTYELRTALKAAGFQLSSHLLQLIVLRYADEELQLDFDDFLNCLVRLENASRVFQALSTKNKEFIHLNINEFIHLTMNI
T1 sequence (P04632 1-268 partner): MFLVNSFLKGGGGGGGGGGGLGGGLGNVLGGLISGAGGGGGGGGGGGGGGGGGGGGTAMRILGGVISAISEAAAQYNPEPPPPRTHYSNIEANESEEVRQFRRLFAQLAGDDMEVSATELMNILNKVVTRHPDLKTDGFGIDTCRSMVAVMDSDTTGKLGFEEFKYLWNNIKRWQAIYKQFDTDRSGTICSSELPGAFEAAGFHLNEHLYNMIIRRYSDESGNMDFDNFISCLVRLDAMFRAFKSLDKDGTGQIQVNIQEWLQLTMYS
Description: Calpain inhibition continuous fluorescence (FRET) assay, Human Calpain 9/NS1. Type of assay: biochemical. The settings on record: read-out: Human Calpain 9/NS1 IC50. The procedure, abridged: (§1)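 Calpain activity is measured kinetically with a quenched FRET peptide in 50 mM Tris pH 7.5, 100 mM NaCl, 1 mM DTT, with CaCl2 triggering activation. Rates over 1-5 min are plotted against log inhibitor to obtain IC50 by 4-parameter logistic fitting.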

A further assay deals with T2, Human Calpain 1/NS1 (Homo sapiens, UniProt P07384).
T2 sequence (P07384 1-714): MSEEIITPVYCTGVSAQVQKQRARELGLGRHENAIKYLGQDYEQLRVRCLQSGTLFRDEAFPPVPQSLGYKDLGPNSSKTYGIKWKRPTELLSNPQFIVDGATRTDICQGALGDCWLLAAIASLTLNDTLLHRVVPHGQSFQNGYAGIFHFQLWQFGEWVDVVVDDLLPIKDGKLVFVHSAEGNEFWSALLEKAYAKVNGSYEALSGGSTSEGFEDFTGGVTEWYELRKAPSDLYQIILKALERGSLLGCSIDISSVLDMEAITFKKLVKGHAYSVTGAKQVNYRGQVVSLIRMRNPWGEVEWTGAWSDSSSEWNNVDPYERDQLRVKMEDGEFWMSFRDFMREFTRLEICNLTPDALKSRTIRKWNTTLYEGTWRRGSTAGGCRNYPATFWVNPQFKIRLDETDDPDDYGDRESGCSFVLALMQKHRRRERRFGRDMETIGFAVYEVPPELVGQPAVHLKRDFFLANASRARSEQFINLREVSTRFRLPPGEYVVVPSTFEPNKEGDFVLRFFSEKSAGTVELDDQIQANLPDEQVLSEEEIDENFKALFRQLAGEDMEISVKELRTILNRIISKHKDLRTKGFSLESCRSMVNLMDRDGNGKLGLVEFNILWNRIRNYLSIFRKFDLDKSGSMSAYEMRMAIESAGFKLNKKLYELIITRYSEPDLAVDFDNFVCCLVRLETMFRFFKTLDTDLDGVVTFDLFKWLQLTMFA
T2 sequence (P04632 1-268 partner): T1 sequence (P04632 1-268 partner)
In words: Calpain inhibition continuous fluorescence (FRET) assay, Human Calpain 1/NS1. Type of assay: biochemical. The settings on record: read-out: Human Calpain 1/NS1 IC50. The procedure, abridged: as §1

For assay [1], the system named is Calpain activity in SH-SY5Y cells (SBDP-150). In words: SH-SY5Y Spectrin western blot assay (SBDP-150 breakdown product, A23187-induced). Type of assay: cell-based. The settings on record: read-out: SH-SY5Y Spectrin IC50.
For assay [2], the system named is Calpain activity in SH-SY5Y cells. Description: SH-SY5Y + AMC fluorescence assay (Suc-LLVY-AMC substrate). It counts as cell-based. Particulars: read-out: SH-SY5Y + AMC IC50.
The next assay concerns the target T3, Human Calpain 2/NS1 (Homo sapiens, UniProt P17655).
T3 sequence (P17655 1-700): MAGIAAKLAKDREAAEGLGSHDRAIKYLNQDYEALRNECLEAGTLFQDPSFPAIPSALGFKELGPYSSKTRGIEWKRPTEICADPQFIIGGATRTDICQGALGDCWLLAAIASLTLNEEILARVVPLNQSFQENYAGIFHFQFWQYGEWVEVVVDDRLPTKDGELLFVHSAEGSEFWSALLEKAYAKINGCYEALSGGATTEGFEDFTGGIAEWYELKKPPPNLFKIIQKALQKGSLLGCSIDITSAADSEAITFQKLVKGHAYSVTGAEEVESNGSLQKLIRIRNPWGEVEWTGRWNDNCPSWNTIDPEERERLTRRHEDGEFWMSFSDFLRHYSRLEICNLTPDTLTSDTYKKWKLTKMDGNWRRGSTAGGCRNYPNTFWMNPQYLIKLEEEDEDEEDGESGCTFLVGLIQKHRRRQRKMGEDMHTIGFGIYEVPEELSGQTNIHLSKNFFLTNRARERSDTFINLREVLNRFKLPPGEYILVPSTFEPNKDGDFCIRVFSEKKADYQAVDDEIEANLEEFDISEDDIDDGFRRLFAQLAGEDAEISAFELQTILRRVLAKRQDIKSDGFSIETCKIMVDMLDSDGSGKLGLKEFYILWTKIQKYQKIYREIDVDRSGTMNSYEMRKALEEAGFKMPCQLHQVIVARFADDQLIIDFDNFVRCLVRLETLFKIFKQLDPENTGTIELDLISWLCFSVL
T3 sequence (P04632 1-268 partner): T1 sequence (P04632 1-268 partner)
In words: Calpain inhibition continuous fluorescence (FRET) assay, Human Calpain 2/NS1. Particulars: read-out: Human Calpain 2/NS1 IC50. Type of assay: biochemical. The procedure, abridged: as §1

Setting [3] is: Homo sapiens, Column D, SH-SY5Y cells, A23187-induced SBDP-150.
The mark [4] stands for this setting: Homo sapiens, SH-SY5Y cells, A23187-induced SBDP-150, western blot.

pIC50: −log10 of the molar value. Like-named read-outs stand apart in the source and are kept apart here.

For `Cn1cc(C(=O)N[C@@H](Cc2ccccc2)C(=O)C(N)=O)c(-c2cccc(C3CC3)c2)n1` [Compound 186, (S)—N-(4-amino-3,4-dioxo-1-phenylbutan-2-yl)-3-(3-cyclopropylphenyl)-1-methyl-1H-pyrazole-4-carboxamide], the pIC50 is 5.00 to 5.52 on Human Calpain 9/NS1 (Column C); 5.00 to 5.52 at Human Calpain 1/NS1 (Column A); < 4.60 in assay [1] (setting [3]); < 4.60 in assay [2] (Column E); 5.00 to 5.52 on Human Calpain 2/NS1 (Column B).
Consider `Cc1cc(C(=O)N[C@@H](Cc2ccccc2)C(=O)C(N)=O)n(-c2ccc(CNC(=O)c3ccccc3)cc2)n1` [Compound 154, (S)—N-(4-amino-3,4-dioxo-1-phenylbutan-2-yl)-1-(4-(benzamidomethyl)phenyl)-3-methyl-1H-pyrazole-5-carboxamide], for which the pIC50 was > 5.52 at Human Calpain 9/NS1 (Column C); > 5.52 at Human Calpain 1/NS1 (Column A); 4.60 to 5.00 in assay [1] (setting [3]); < 4.60 in assay [2] (Column E); > 5.52 at Human Calpain 2/NS1 (Column B).
As for `Cn1cc(C(=O)N[C@@H](Cc2ccccc2)C(=O)C(N)=O)c(-c2cccc(F)c2)n1` [Compound 178, (S)—N-(4-amino-3,4-dioxo-1-phenylbutan-2-yl)-3-(3-fluorophenyl)-1-methyl-1H-pyrazole-4-carboxamide], the pIC50 on Human Calpain 9/NS1 (Column C) was > 5.52; on Human Calpain 1/NS1 (Column A), > 5.52; in assay [1] (setting [3]) it was > 5.00; in assay [2] (Column E), > 5.00; at Human Calpain 2/NS1 (Column B), > 5.52.
As to `Cc1cc(C(=O)N[C@@H](Cc2ccccc2)C(=O)C(N)=O)n(-c2ccc(OC(F)(F)F)cc2)n1` [Compound 19, (S)—N-(4-amino-3,4-dioxo-1-phenylbutan-2-yl)-3-methyl-1-(4-(trifluoromethoxy)phenyl)-1H-pyrazole-5-carboxamide], the pIC50 was > 5.52 on Human Calpain 9/NS1 (Column C); > 5.52 at Human Calpain 1/NS1 (Column A); 4.60 to 5.00 in assay [1] (setting [3]); < 4.60 in assay [2] (Column E); > 5.52 at Human Calpain 2/NS1 (Column B).
For `Cn1ncc(C(=O)N[C@@H](Cc2ccccc2)C(=O)C(N)=O)c1-c1ccccc1` [Compound 45, (S)—N-(4-amino-3,4-dioxo-1-phenylbutan-2-yl)-1-methyl-5-phenyl-1H-pyrazole-4-carboxamide], the pIC50 at Human Calpain 9/NS1 (Column C) was > 5.52; on Human Calpain 1/NS1 (Column A), > 5.52; in assay [1] (setting [3]), < 4.60; in assay [2] (Column E), 4.60 to 5.00; on Human Calpain 2/NS1 (Column B) it was > 5.52.
As for `Cc1ccc(F)c(-c2oncc2C(=O)NC(Cc2ccccc2)C(=O)C(N)=O)c1` (stereo not drawn) [Compound 549, N-(4-amino-3,4-dioxo-1-phenylbutan-2-yl)-5-(2-fluoro-5-methylphenyl)isoxazole-4-carboxamide], the pIC50 at Human Calpain 9/NS1 was > 5.52; at Human Calpain 1/NS1 it was > 5.52; in assay [1] (setting [4]), < 4.60; in assay [2], > 5.00; at Human Calpain 2/NS1, > 5.52.
For `Cn1cc(C(=O)NC(Cc2ccccc2)C(=O)C(N)=O)c(N2CCN(C(=O)OC(C)(C)C)CC2)n1` (stereo not drawn) [Compound 603, Tert-Butyl 4-(4-((4-amino-3,4-dioxo-1-phenylbutan-2-yl)carbamoyl)-1-methyl-1H-pyrazol-3-yl)piperazine-1-carboxylate], the pIC50 on Human Calpain 9/NS1 is 5.00 to 5.52; on Human Calpain 1/NS1, 5.00 to 5.52; in assay [1] (Homo sapiens, SH-SY5Y), < 4.60; in assay [2], < 4.60; on Human Calpain 2/NS1, 5.00 to 5.52.
As for `Cc1cc(C(=O)NC(Cc2ccccc2)C(=O)C(N)=O)n(-c2ccnc(C(C)C)n2)n1` (stereo not drawn) [Compound 431, N-(4-amino-3,4-dioxo-1-phenylbutan-2-yl)-1-(2-isopropylpyrimidin-4-yl)-3-methyl-1H-pyrazole-5-carboxamide], the pIC50 at Human Calpain 9/NS1 was > 5.52; on Human Calpain 1/NS1, > 5.52; in assay [1] (setting [4]), < 4.60; in assay [2], > 5.00; at Human Calpain 2/NS1, > 5.52.
Take `Cn1cc(C(=O)N[C@H](C(=O)C(N)=O)C2Cc3ccccc3C2)c(-c2ccccc2F)n1` [Compound 553, (S)—N-(3-amino-1-(2,3-dihydro-1H-inden-2-yl)-2,3-dioxopropyl)-3-(2-fluorophenyl)-1-methyl-1H-pyrazole-4-c arboxamide]: the pIC50 is > 5.52 on Human Calpain 9/NS1; > 5.52 on Human Calpain 1/NS1; < 4.60 in assay [1] (setting [4]); > 5.00 in assay [2]; > 5.52 on Human Calpain 2/NS1.
For the compound `Cc1cc(C(=O)NC(Cc2ccccc2)C(=O)C(=O)NC2CC2)n(-c2cnccn2)n1` (stereo not drawn) [Compound 454, N-(4-(cyclopropylamino)-3,4-dioxo-1-phenylbutan-2-yl)-3-methyl-1-(pyrazin-2-yl)-1H-pyrazole-5-carboxamide], the pIC50 at Human Calpain 9/NS1 is 5.00 to 5.52; on Human Calpain 1/NS1, > 5.52; in assay [1] (setting [4]), 4.60 to 5.00; in assay [2], > 5.00; at Human Calpain 2/NS1, > 5.52.
With `Cc1cc(C(=O)N[C@@H](Cc2ccccc2)C(=O)C(N)=O)n(-c2ccc(-c3ccc(F)cc3)cc2)n1` [Compound 126, (S)—N-(4-amino-3,4-dioxo-1-phenylbutan-2-yl)-1-(4′-fluoro-[1,1′-biphenyl]-4-yl)-3-methyl-1H-pyrazole-5-carboxamide], the pIC50 at Human Calpain 9/NS1 (Column C) is > 5.52; on Human Calpain 1/NS1 (Column A), > 5.52; in assay [1] (setting [3]) it was > 5.00; in assay [2] (Column E), < 4.60; at Human Calpain 2/NS1 (Column B), > 5.52.
Take “N-(4-amino-3,4-dioxo-1-phenylbutan-2-yl)-1-(2-cyanopyrimidin-4-yl)-3-methyl-1H-pyrazole-5-carboxamide [Compound 448]”: the pIC50 was > 5.52 on Human Calpain 9/NS1; > 5.52 on Human Calpain 1/NS1; > 5.00 in assay [1] (SH-SY5Y cells, A23187-induced SBDP-150, western blot); > 5.00 in assay [2]; > 5.52 at Human Calpain 2/NS1.
